Values of other authors as cited in US20210186960A1, “MODULATORS OF INDOLEAMINE 2,3-DIOXYGENASE” (GLAXOSMITHKLINE INTELLECTUAL PROPERTY DEVELOPMENT LIMITED, priority 2017, published 2021).

How the values were obtained:
[1] = system: PANO2 pancreatic cells; settings: orally dosed, cited from earlier work
[2] = system: conversion of T cells into CD4+FoxP3+ Tregs; settings: co-culture of DCs and naive CD4+CD25- T cells; cited from earlier work

## NS(=O)(=O)NCCNc1nonc1C(=NO)Nc1ccc(F)c(Br)c1 [INCB204360]
[1]; PANO2 syngeneic model, immunocompetent mice
  inhibition of tumor growth: significant dose-dependent inhibition of tumor growth
[1]; same tumor implanted in immune-deficient mice
  effect on tumor growth: without effect
[2]
  conversion of T cells into CD4+FoxP3+ Tregs: blocked the conversion
